{"source": "patent US20100233131A1", "about": "(PUSAN NATIONAL UNIVERSITY INDUSTRY-UNIVERSITY COOP, priority 2008, published 2010)", "format_in_all_cases": "cell-based, human", "key": {"ATSCs [1]": {"system": "ATSCs", "assay": "Colony forming unit (CFU) assay", "details": "5 ng/ml selenium 3 days, colonies counted after 15 days, vs control ATSCs", "procedure": "Also, the proliferation efficiency of colony forming units (CFU) in the selenium-treated cells was evaluated. […] First, the ATSCs were seeded in 10 cm dishes at a density of 5×10^5 and cultured in a 2% FBS-containing α-MEM medium for 8 hours at 37° C. in a CO2 incubator. […] After 15 days, the cells were fixed with 4% paraformaldehyde (PFA) for 30 minutes at room temperature and stained with 0.1% toluidine blue dissolved in 1% PFA. The proliferation efficiency of the CFU was evaluated via visual colony counts."}, "ATSCs [2]": {"system": "ATSCs", "assay": "Telomerase activity of selenium-treated ATSCs", "details": "5 ng/ml selenium for 3 days", "description": "An increase in telomerase activity is a characteristic of a stem cell, and a decrease in telomerase activity indicates differentiation of the cells."}, "ATSCs [3]": {"system": "ATSCs", "assay": "Prolonged culture / proliferation lifespan", "description": "During prolonged culture periods, the population of control ATSCs underwent a progressive reduction in proliferation potential. The cells finally underwent senescence after 21 to 23 passages (90 to 100 days in culture). At the end of the proliferation lifespan, the cells were flattered and larger in morphology in a monolayer similar to that described for senescent fibroblasts. […] The rate of proliferation of selenium-treated ATSCs resembled that of the control ATSCs."}, "ATSCs [4]": {"system": "ATSCs", "assay": "Molecular marker expression by real time RT-PCR and Western blot", "description": "The expression of molecular markers in both the control ATSCs and the selenium-treated cells was verified via real time RT-PCR and Western blot analysis."}, "ATSCs [5]": {"system": "ATSCs", "assay": "Western blot of proliferation-related signaling proteins", "details": "time-dependent"}, "ATSCs [6]": {"system": "ATSCs", "assay": "ROS generation (DCF fluorescence)"}, "ATSCs [7]": {"system": "ATSCs", "assay": "Oligonucleotide microarray analysis of gene expression", "details": "vs control ATSCs", "procedure": "To confirm the pattern of gene expression, oligonucleotide microarray analysis was performed."}, "[8]": {"system": "Rex1, Nanog and Oct4 promoter regions", "assay": "Bisulfite sequencing of CpG methylation on stemness gene promoter regions", "procedure": "Also, a bisullipide sequencing analysis was performed in order to establish 5′-3′ CpG methylation profiles across a proximal promoter, a proximal enhancer and an early transcription start site (TSS) of each gene.\nGenomic DNA of ATSCs was purified by phenol/chloroform/isoamylalcohol extraction, and chloroform extraction once, and then was precipitated with ethanol. The DNA was dissolved in distilled water. Bisullipide conversion was performed using EZ DNA Methylation-Gold Kit (Zymo Research, USA), as described by a manufacturer. That is, unmethylated cytosines on the DNA were converted into uracils via the heat-denaturation of DNA with specifically designed CT conversion reagent. The DNA was then desulphonated and subsequently cleaned and eluted. The bisulfite-modified DNA was then immediately used for PCR or stored at −20° C. or below. The converted DNA was amplified via PCR using primers designed with MethPrimer (http://www.urogene.org/methprimer). The PRC was conducted in a MyGenie 96 Gradient Thermal Block (Bioneer, Daejeon, South Korea) according to the following protocol, including 95° C. for 15 minutes, 40 cycles of 95° C. for 20 seconds, 43 to 58° C. for 40 seconds, and 72° C. for 30 seconds, elongation at 72° C. for 10 minutes and soaking at 4° C. After electrophoresis on 1.5% agarose gel, the remaining PCR products were cloned into bacteria (DH5α) by the pGEM T-Easy Vector System I (Promega, Madison, Wis., USA). The DNA extracted from bacterial clones were analyzed via sequencing with M13 reverse primers using the ABI 3730XL capillary DNA sequencer (Applied Biosystems, Foster City, Calif., USA), and represented as rows of circles, each circle denoting the methylation status of CpG."}, "ATSCs [9]": {"system": "ATSCs", "assay": "Cell scraped wound model assay", "procedure": "Cells were seeded into 60 mm culture dishes, and a straight line was lightly carved across the center, outer and bottom surface of each dish with a scalpel. The ATSCs were incubated overnight in a serum-free medium, scraped from one side of the marked line, and washed three times with a medium to remove loose or dead cells. […] The control dish was also scratched in the same manner as described above, and incubated in a selenium-free medium. Cells migrated across the marked reference line were photographed under a phase contrast microscope."}, "ATSCs [10]": {"system": "ATSCs", "assay": "Osteogenic and adipogenic differentiation in vitro", "procedure": "To estimate the differentiation potential of selenium-treated ATSCs, osteogenic and adipogenic differentiation potential was evaluated.\nIn the present embodiment, it was confirmed that the selenium-treated ATSCs accumulated significant amounts of calcium and lipid droplets after only one week of osteogenetic and adipogenetic induction in vitro (FIG. 17). Differences in formation of bone nodules and lipid droplets between the control and selenium-treated ATSCs were estimated by calculating the number of stained bone nodules and lipid droplets in 25 randomly selected fields (regions)."}, "ATSCs [11]": {"system": "ATSCs", "assay": "Neural differentiation in vitro", "description": "In an attempt to estimate differentiation potential of selenium-treated ATSCs into neural cells in vitro, low levels of Nestin protein expression were detected in the selenium-treated ATSCs after the induction of differentiation (FIG. 19). After neural differentiation, the selenium-treated ATSCs expressed higher levels of Tuj, GFAP, MAP2ab and NF160 than the control ATSCs (FIG. 19). […] It means that there is a difference in differential potential between the control ATSCs and the selenium-treated ATSCs."}, "ATSCs [12]": {"system": "ATSCs", "assay": "Differentiation into insulin-producing cells", "details": "after beta-cell-like differentiation, vs differentiated control ATSCs", "procedure": "Moreover, for differentiation of cells similar to beta cells, cells were cultured in “N2 media-NA” containing DMEM/F12 (Gibco-Invitrogen) supplemented with 10 mM nicotinamide, ITS (1:50), B27 (1:50; Invitrogen) and 15% FBS. After 24-hour culture, the medium was changed with a high glucose (3500 mg/L)-containing differentiation medium for 2 weeks. After the induction of differentiation, double immunocytochemistry was conducted using insulin (1:800; Sigma) and c-peptide (1:100; Milipore) antibodies."}}, "data": [{"compound": "O=[Se]([O-])[O-].[Na+].[Na+]", "note": "[selenium, sodium selenite]", "values": [{"measurement": "cell proliferation increase by CFU levels", "setting": "ATSCs [1]", "value": "at least 1.8 times"}, {"measurement": "increase in telomerase activity", "setting": "ATSCs [2]", "value": 2, "unit": "fold"}, {"measurement": "passages of continuous growth", "setting": "ATSCs [3]", "value": "> 21", "unit": "passages"}, {"measurement": "duration of continuous growth", "setting": "ATSCs [3]; control ATSCs senescent after 21 to 23 passages", "value": "more than 3 months"}, {"measurement": "acetylation of Histones 3 and 4", "setting": "ATSCs [4]", "value": "attenuated"}, {"measurement": "expression of GFAP, Tuj, p53 and p21", "setting": "ATSCs [4]", "value": "downregulation"}, {"measurement": "expression of Nestin and c-Myc", "setting": "ATSCs [4]", "value": "induced expression"}, {"measurement": "Rex1 expression", "setting": "ATSCs [4]; vs control ATSCs", "value": "significantly increased"}, {"measurement": "expression of stemness and functional genes (Rex1, Nanog, Oct4, Sox2, Runx3, CDK1, CDK2, Nestin, VEGF, FGFR1)", "setting": "ATSCs [4]; vs control ATSCs", "value": "overexpression"}, {"measurement": "activation of PI3K and downstream mediators (p-Rac, p-c-Raf, p-MEK, p-ERK, p-Stat3, p-Akt)", "setting": "ATSCs [5]; 0, 3, 6 and 12 hours", "value": "significant activation"}, {"measurement": "concentration of apoptosis-related protein p-SAPK/JNK", "setting": "ATSCs [5]", "value": "reduced"}, {"measurement": "increased fluorescence intensity of DCF (ROS generation)", "setting": "ATSCs [6]", "value": "compensated"}, {"measurement": "upregulation of cell proliferation-associated genes", "setting": "ATSCs [7]", "value": 42, "unit": "%"}, {"measurement": "Nanog promoter methylation", "setting": "[8]; third region (-86 to +66) to the TSS", "value": "effectively demethylated"}, {"measurement": "Oct4 promoter CpG methylation", "setting": "[8]; third region, control ATSCs 65.7%", "value": 30.3, "unit": "%"}, {"measurement": "Rex1 region CpG methylation", "setting": "[8]; third region, control ATSCs 72.2%", "value": 42.2, "unit": "%"}, {"measurement": "migration of ATSCs across the reference line", "setting": "ATSCs [9]; 5 ng/ml selenium, 24 hours, vs control ATSCs", "value": "three times higher"}, {"measurement": "expression of migration-associated factors MMP1, MMP3, SDF1, VEGF and CXCR4", "setting": "ATSCs [9]; after selenium treatment", "value": "increases in expression"}, {"measurement": "lipid droplets vs control ATSCs", "setting": "ATSCs [10]; adipogenic induction, eluted dye quantitative assay", "value": "six-fold more"}, {"measurement": "level of osteonectin, RXR and osteopontin mRNA", "setting": "ATSCs [10]; during osteogenesis", "value": "significant increases"}, {"measurement": "levels of AP and PPAR-γ mRNAs", "setting": "ATSCs [10]; in adipogenesis", "value": "significant increases"}, {"measurement": "bone nodules vs control ATSCs", "setting": "ATSCs [10]; osteogenic induction, eluted dye quantitative assay", "value": "Five-fold more"}, {"measurement": "acetyl-histones 3 and 4 (Western blot)", "setting": "ATSCs [11]; after neural differentiation", "value": "overexpressed"}, {"measurement": "expression of Tuj, GFAP, MAP2ab and NF160", "setting": "ATSCs [11]; after neural differentiation, vs control ATSCs", "value": "higher levels"}, {"measurement": "neural differentiation (MAP2ab/total cells)", "setting": "ATSCs [11]; control ATSCs 2.4%", "value": "9.0 % of total cells"}, {"measurement": "insulin secretion with C-peptide", "setting": "ATSCs [12]", "value": "secreted a significant amount of insulin"}]}]}
